Some test systems named below: ACHN; CCRF-CEM; COLO 205; HCT-116; IGROV-1; K562; KM12; LOX IMVI; MCF7; NCI-H226; NCI-H23; OVCAR-8; RXF 393; SF-295; SF-539; SNB-19; SR; SW-620; T47D; TK-10.
What all share (experiment): NCI anticancer screen, dose series, 48 h

“And” between values parts separate entries of the source, which are not always exact repeats. Equal values may be shown once.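 Briefly, cells in 96-well plates were exposed to five compound concentrations for 48 h, and endpoints were estimated by linear interpolation. GI50 is the concentration that inhibits growth by half.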 The source made the active and inactive calls. Rule as the data show it: active = GI50 up to about 1.1 µM and inactive = higher.

Consider `C=C(Cl)C(Cl)(CBr)CCC(Br)C(C)(C)Cl` (stereo not given), for which the GI50 is 1.7 µM (inactive) and 1.18 µM (inactive) and 1.32 µM (inactive) with ACHN; 5.08 µM (inactive) and 12.5 µM (inactive) and 4.5 µM (inactive) in the test with CCRF-CEM; 1.72 µM (inactive) and 2.95 µM (inactive) and 14.5 µM (inactive) with COLO 205; 508 nM (active) and 1.95 µM (inactive) and 448 nM (active) with HCT-116; 11.9 µM (inactive) and 21.5 µM (inactive) and 8.41 µM (inactive) in the test on IGROV-1; 1.33 µM (inactive) and 14.4 µM (inactive) and 863 nM (active) in the test on K562. Besides, the GI50 in the test with KM12 is 1.34 µM (inactive) and 2.32 µM (inactive) and 1.43 µM (inactive); in the test on LOX IMVI, 19.1 µM (inactive) and 5.7 µM (inactive) and 15.6 µM (inactive); in the test with MCF7, 1.26 µM (inactive) and 2.54 µM (inactive) and 220 nM (active); in the test with NCI-H226, 18.2 µM (inactive) and 17.5 µM (inactive) and 16 µM (inactive); in the test with NCI-H23, 22.4 µM (inactive) and 16.3 µM (inactive) and 12 µM (inactive); in the test on OVCAR-8, 6.25 µM (inactive) and 2.03 µM (inactive) and 1.26 µM (inactive). Moreover, the GI50 in the test on RXF 393 is 991 nM (active) and 190 nM (active) and 1.11 µM (active); in the test with SF-295 it was 1.79 µM (inactive) and 1.65 µM (inactive) and 1.35 µM (inactive); in the test with SF-539, 1.95 µM (inactive) and 446 nM (active) and 1.27 µM (inactive); in the test on SNB-19, 2.41 µM (inactive) and 863 nM (active) and 3.49 µM (inactive); in the test on SR it was 11.5 µM (inactive) and 4.53 µM (inactive) and 15 µM (inactive); in the test on SW-620 it was 1.91 µM (inactive) and 12.2 µM (inactive) and 1.52 µM (inactive). Also, the GI50 in the test with T47D is 3.37 µM (inactive) and 416 nM (active) and 973 nM (active); in the test on TK-10, 3.43 µM (inactive) and 1.93 µM (inactive) and 2.07 µM (inactive).

Take `COC(=O)c1ccc(C)cc1C1CN=NC12Cc1cccc(C)c1C2=O` (stereo not given): the GI50 in the test on ACHN is 38.3 µM (inactive); in the test with CCRF-CEM, 31.6 µM (inactive); with COLO 205, 30.5 µM (inactive); in the test with HCT-116, 42.3 µM (inactive); with IGROV-1, 53.1 µM (inactive); with K562, 26.7 µM (inactive). The GI50 was 26.7 µM (inactive) with KM12; 28.6 µM (inactive) in the test with LOX IMVI; 91.2 µM (inactive) in the test on MCF7; 25.1 µM (inactive) in the test with NCI-H226; 64.9 µM (inactive) in the test on NCI-H23; 21.1 µM (inactive) with OVCAR-8. For the same molecule, the GI50 with RXF 393 is > 100 µM (inactive); with SF-295 it was 50 µM (inactive); in the test with SF-539 it was 90.4 µM (inactive); in the test on SNB-19, > 100 µM (inactive); in the test on SR, 82.8 µM (inactive); in the test on SW-620 it was 57.7 µM (inactive). The GI50 is 24.9 µM (inactive) in the test with T47D and > 100 µM (inactive) in the test with TK-10.

Regarding `CN(C)c1nc2oc(-c3ccccc3)c(-c3ccccc3)c2c2nnnn12`, the GI50 with ACHN, with CCRF-CEM, in the test on COLO 205, in the test on HCT-116, in the test with IGROV-1 and with K562 was > 100 µM (inactive) each time. For the same molecule, the GI50 in the test on KM12, with LOX IMVI, in the test with MCF7, in the test on NCI-H226, in the test on NCI-H23 and in the test on OVCAR-8 was > 100 µM (inactive) throughout. Besides, the GI50 with RXF 393, with SF-295, with SF-539, with SNB-19, with SR and with SW-620 was > 100 µM (inactive) in each case. For the same molecule, the GI50 in the test with T47D and in the test on TK-10 was > 100 µM (inactive) in each case.

On to `CO[C@]1(c2ccc([N+](=O)[O-])cc2)Oc2ccccc2C(=O)[C@@]1(Nc1ccc(C=O)cc1)OC`, for which the GI50 in the test on ACHN, with CCRF-CEM, with COLO 205, with HCT-116, in the test on IGROV-1 and in the test with K562 was > 10 µM (inactive) in each case. In addition, the GI50 in the test on KM12, in the test with LOX IMVI, with MCF7, in the test with NCI-H226, in the test with NCI-H23 and with OVCAR-8 was > 10 µM (inactive) each time. Besides, the GI50 in the test with RXF 393, in the test with SF-295, with SF-539, in the test on SNB-19, in the test on SR and with SW-620 was > 10 µM (inactive) each time. The GI50 in the test on T47D and with TK-10 was > 10 µM (inactive) in each case.

Take `Nc1ncnc2c1ncn2[C@H]1C=C[C@@H](NO)C1`: the GI50 in the test on ACHN, in the test on CCRF-CEM, in the test with COLO 205, with HCT-116, in the test on IGROV-1 and in the test with K562 was > 100 µM (inactive) throughout. The GI50 in the test on KM12, in the test with LOX IMVI, in the test on MCF7, in the test with NCI-H226, in the test with NCI-H23 and in the test on OVCAR-8 was > 100 µM (inactive) throughout. The GI50 in the test with RXF 393, in the test with SF-295, in the test with SF-539, in the test on SNB-19, in the test on SR and with SW-620 was > 100 µM (inactive) each time. In addition, the GI50 in the test on T47D and with TK-10 was > 100 µM (inactive) each time.

For `Cn1c(=O)nc2n(-c3ccc(Cl)cc3)c3cc(Cl)ccc3nc-2c1=O`, the GI50 in the test with ACHN was 12.6 µM (inactive); with CCRF-CEM, 5.82 µM (inactive); in the test with COLO 205, 2.11 µM (inactive); in the test with HCT-116 it was 3.92 µM (inactive); in the test on IGROV-1, 1.6 µM (inactive); with K562 it was 2.37 µM (inactive). Moreover, the GI50 in the test on KM12 was 5.52 µM (inactive); with LOX IMVI, 2.03 µM (inactive); in the test on MCF7, 0.577 µM (active); in the test on NCI-H226, 25.8 µM (inactive); with NCI-H23, 3.33 µM (inactive); in the test with OVCAR-8 it was 2.72 µM (inactive). The GI50 in the test with RXF 393 was 4.45 µM (inactive); in the test with SF-295 it was 10.9 µM (inactive); with SF-539, 16.5 µM (inactive); in the test with SNB-19, 14.3 µM (inactive); in the test on SR it was 3.93 µM (inactive); in the test with SW-620, 2.12 µM (inactive). The GI50 was 0.92 µM (active) with T47D and 20 µM (inactive) in the test on TK-10.

With `O=C(CCCl)NN=C1NCCN1`, the GI50 in the test on ACHN, in the test on CCRF-CEM, in the test with COLO 205, with HCT-116, in the test with IGROV-1 and with K562 was > 100 µM (inactive) in each case. For the same molecule, the GI50 in the test with KM12, with LOX IMVI, with MCF7, with NCI-H226, in the test on NCI-H23 and with OVCAR-8 was > 100 µM (inactive) throughout. The GI50 in the test on RXF 393, in the test with SF-295, in the test on SF-539, in the test with SNB-19, with SR and in the test with SW-620 was > 100 µM (inactive) in each case. Further, the GI50 in the test with T47D and with TK-10 was > 100 µM (inactive) in each case.

Take `CC(=O)NNc1nc(C)c(C(/C=C/c2ccc([N+](=O)[O-])cc2)=N/N)s1`: the GI50 with ACHN is > 100 µM (inactive); in the test with CCRF-CEM it was > 100 µM (inactive); in the test with COLO 205, > 100 µM (inactive); with HCT-116 it was > 100 µM (inactive); in the test on IGROV-1 it was 54 µM (inactive); with K562, 55.5 µM (inactive). Also, the GI50 with KM12 was > 100 µM (inactive); in the test on LOX IMVI, 86.9 µM (inactive); with MCF7, > 100 µM (inactive); in the test with NCI-H226, > 100 µM (inactive); with NCI-H23, > 100 µM (inactive); in the test on OVCAR-8 it was > 100 µM (inactive). Also, the GI50 in the test with RXF 393 was 55.3 µM (inactive); in the test with SF-295, > 100 µM (inactive); in the test on SF-539, > 100 µM (inactive); with SNB-19 it was > 100 µM (inactive); in the test with SR, 37.7 µM (inactive); in the test on SW-620 it was > 100 µM (inactive). For the same molecule, the values for the GI50 in the test on T47D and with TK-10 were > 100 µM (inactive) and 37.9 µM (inactive), respectively.

Take `C[C@]12OC(=O)[C@]3(O)CC[C@H]4[C@@H](C[C@@H](O)[C@@]5(Cl)CC=CC(=O)[C@]45C)[C@]45OCC6C(=O)O[C@@H]1C[C@@]6(C)[C@H](C4=O)[C@@]32O5` (stereo not given in full): the GI50 was 1.05 µM (active) in the test with ACHN; 0.22 µM (active) in the test on CCRF-CEM; 0.867 µM (active) in the test with COLO 205; 0.656 µM (active) in the test on HCT-116; 1 µM (active) with IGROV-1; 0.469 µM (active) in the test on K562. The GI50 was 2.15 µM (inactive) with KM12; 0.951 µM (active) in the test with LOX IMVI; 0.774 µM (active) with MCF7; 1.91 µM (inactive) with NCI-H226; 0.542 µM (active) in the test on NCI-H23; 1.41 µM (inactive) in the test with OVCAR-8. Besides, the GI50 in the test on RXF 393 is 0.283 µM (active); with SF-295 it was 3.05 µM (inactive); in the test on SF-539 it was 0.759 µM (active); with SNB-19 it was 5.73 µM (inactive); with SR, 0.811 µM (active); in the test on SW-620, 0.494 µM (active). Also, the GI50 was 1.82 µM (inactive) with T47D and 1.6 µM (inactive) in the test with TK-10.

The values above are taken from ChEMBL document CHEMBL1201862, “PubChem BioAssay data set” (2004).
